Laboratory results: patent US9469650B2, “Melampomagnolide B derivatives” (BOARD OF TRUSTEES OF THE UNIVERSITY OF ARKANSAS, priority 2013, dated 2016)
Where two headings read alike, the source gives them in different places.

Tests used:
HOP-62 = experiment: panel of 60 human tumor cell lines, growth inhibition (Non-Small Cell Lung Cancer)
U251 = experiment: panel of 60 human tumor cell lines, growth inhibition (CNS Cancer); conditions: for Percent Growth: U251
HS 578T = experiment: panel of 60 human tumor cell lines, growth inhibition (Breast Cancer); conditions: for Percent Growth: HS 578T
A498 = experiment: panel of 60 human tumor cell lines, growth inhibition (Renal Cancer)
SK-MEL-5 = experiment: panel of 60 human tumor cell lines, growth inhibition (Melanoma); conditions: for Percent Growth: 8K-MEL-5
DU-145 = experiment: panel of 60 human tumor cell lines, growth inhibition (Prostate Cancer)
PC-3 = experiment: as above
786-0 = experiment: panel of 60 human tumor cell lines, growth inhibition (Renal Cancer)
T-47D = experiment: panel of 60 human tumor cell lines, growth inhibition (Breast Cancer); conditions: for Percent Growth: T-47D
MDA-MB-468 = experiment: panel of 60 human tumor cell lines, growth inhibition (Breast Cancer)
NCI-H460 = experiment: panel of 60 human tumor cell lines, growth inhibition (Non-Small Cell Lung Cancer)
UACC-257 = experiment: panel of 60 human tumor cell lines, growth inhibition (Melanoma)
NCI-H226 = experiment: panel of 60 human tumor cell lines, growth inhibition (Non-Small Cell Lung Cancer)
OVCAR-3 = experiment: panel of 60 human tumor cell lines, growth inhibition (Ovarian Cancer)
HOP-92 = experiment: panel of 60 human tumor cell lines, growth inhibition (Non-Small Cell Lung Cancer); conditions: for Percent Growth: HOP-92
MOLT-4 = experiment: panel of 60 human tumor cell lines, growth inhibition (Leukemia)

## C=C1C(=O)O[C@H]2[C@H]1CC/C(COC(=O)CCC(=O)NCc1ccc(Cl)nc1)=C\CC[C@@]1(C)O[C@@H]21 [JVM 96]
HOP-62; HOP-62, Log10 Concentration −4.0
  Percent Growth: −53%
HOP-62; HOP-62, Log10 Concentration −5.0
  Percent Growth: 95%
HOP-62; HOP-62, Log10 Concentration −6.0
  Percent Growth: 98%
HOP-62; HOP-62, Log10 Concentration −7.0
  Percent Growth: 93%
HOP-62; HOP-62, Log10 Concentration −8.0
  Percent Growth: 95%
HOP-62; Homo sapiens, HOP-62
  GI50: 20.1 µM
HOP-62; Homo sapiens, HOP-62, read-out: LC50
  CC50: 95.2 µM
HOP-62; Homo sapiens, HOP-62, read-out: TGI
  IC (TGI): 43.7 µM
U251; Homo sapiens, U-251
  GI50: 16.7 µM
U251; Homo sapiens, U-251, read-out: LC50
  CC50: 64.5 µM
U251; Homo sapiens, U-251, read-out: TGI
  IC (TGI): 32.8 µM
U251; Log10 Concentration −4.0
  Percent Growth: −82%
U251; Log10 Concentration −5.0
  Percent Growth: 88%
U251; Log10 Concentration −6.0
  Percent Growth: 99%
U251; Log10 Concentration −7.0
  Percent Growth: 93%
U251; Log10 Concentration −8.0
  Percent Growth: 92%
HS 578T; Log10 Concentration −4.0
  Percent Growth: −5%
HS 578T; Log10 Concentration −5.0
  Percent Growth: 61%
HS 578T; Log10 Concentration −6.0
  Percent Growth: 94%
HS 578T; Log10 Concentration −7.0
  Percent Growth: 101%
HS 578T; Log10 Concentration −8.0
  Percent Growth: 95%
HS 578T; Homo sapiens, Hs-578T
  GI50: 14.7 µM
HS 578T; Homo sapiens, Hs-578T, read-out: LC50
  CC50: > 100 µM
HS 578T; Homo sapiens, Hs-578T, read-out: TGI
  IC (TGI): 63.7 µM
A498; A498, Log10 Concentration −4.0
  Percent Growth: −95%
A498; A498, Log10 Concentration −5.0
  Percent Growth: 74%
A498; A498, Log10 Concentration −6.0
  Percent Growth: 95%
A498; A498, Log10 Concentration −7.0
  Percent Growth: 107%
A498; A498, Log10 Concentration −8.0
  Percent Growth: 96%
A498; Homo sapiens, A498
  GI50: 13.9 µM
A498; Homo sapiens, A498, read-out: LC50
  CC50: 54.2 µM
A498; Homo sapiens, A498, read-out: TGI
  IC (TGI): 27.5 µM
SK-MEL-5; Log10 Concentration −4.0
  Percent Growth: −89%
SK-MEL-5; Log10 Concentration −5.0
  Percent Growth: 53%
SK-MEL-5; Log10 Concentration −7.0
  Percent Growth: 98%
SK-MEL-5; Log10 Concentration −8.0
  Percent Growth: 97%
SK-MEL-5; Homo sapiens, SK-MEL-5
  GI50: 10.5 µM
SK-MEL-5; Homo sapiens, SK-MEL-5, read-out: LC50
  CC50: 53.1 µM
SK-MEL-5; Homo sapiens, SK-MEL-5, read-out: TGI
  IC (TGI): 23.7 µM
DU-145; DU-145, Log10 Concentration −4.0
  Percent Growth: −97%
DU-145; DU-145, Log10 Concentration −5.0
  Percent Growth: 16%
DU-145; DU-145, Log10 Concentration −6.0
  Percent Growth: 98%
DU-145; DU-145, Log10 Concentration −7.0
  Percent Growth: 106%
DU-145; DU-145, Log10 Concentration −8.0
  Percent Growth: 99%
DU-145; Homo sapiens, DU-145
  GI50: 3.84 µM
DU-145; Homo sapiens, DU-145, read-out: LC50
  CC50: 38.4 µM
DU-145; Homo sapiens, DU-145, read-out: TGI
  IC (TGI): 13.9 µM
PC-3; Homo sapiens, PC-3
  GI50: 15.6 µM
PC-3; Homo sapiens, PC-3, read-out: LC50
  CC50: 75.7 µM
PC-3; Homo sapiens, PC-3, read-out: TGI
  IC (TGI): 34.3 µM
PC-3; PC-3, Log10 Concentration −4.0
  Percent Growth: −68%
PC-3; PC-3, Log10 Concentration −5.0
  Percent Growth: 78%
PC-3; PC-3, Log10 Concentration −6.0
  Percent Growth: 93%
PC-3; PC-3, Log10 Concentration −7.0
  Percent Growth: 92%
PC-3; PC-3, Log10 Concentration −8.0
  Percent Growth: 90%
786-0; 786-0, Log10 Concentration −4.0
  Percent Growth: −91%
786-0; 786-0, Log10 Concentration −5.0
  Percent Growth: 26%
786-0; 786-0, Log10 Concentration −6.0
  Percent Growth: 94%
786-0; 786-0, Log10 Concentration −7.0
  Percent Growth: 92%
786-0; 786-0, Log10 Concentration −8.0
  Percent Growth: 94%
786-0; Homo sapiens, 786-0
  GI50: 4.43 µM
786-0; Homo sapiens, 786-0, read-out: LC50
  CC50: 44.4 µM
786-0; Homo sapiens, 786-0, read-out: TGI
  IC (TGI): 16.6 µM
T-47D; Homo sapiens, T47D
  GI50: 3.52 µM
T-47D; Homo sapiens, T47D, read-out: LC50
  CC50: 55.9 µM
T-47D; Homo sapiens, T47D, read-out: TGI
  IC (TGI): 14.4 µM
T-47D; Log10 Concentration −4.0
  Percent Growth: −71%
T-47D; Log10 Concentration −5.0
  Percent Growth: 13%
T-47D; Log10 Concentration −6.0
  Percent Growth: 94%
T-47D; Log10 Concentration −7.0
  Percent Growth: 100%
T-47D; Log10 Concentration −8.0
  Percent Growth: 100%
HL-60(TB); Log10 Concentration −4.0
  Percent Growth: −48%
HL-60(TB); Log10 Concentration −5.0
  Percent Growth: −5%
HL-60(TB); Log10 Concentration −6.0
  Percent Growth: 76%
HL-60(TB); Log10 Concentration −7.0
  Percent Growth: 78%
HL-60(TB); Log10 Concentration −8.0
  Percent Growth: 91%
MDA-MB-468; Homo sapiens, MDA-MB-468
  GI50: 1540 nM
MDA-MB-468; Homo sapiens, MDA-MB-468, read-out: LC50
  CC50: 44.6 µM
MDA-MB-468; Homo sapiens, MDA-MB-468, read-out: TGI
  IC (TGI): 7.38 µM
MDA-MB-468; MDA-MB-468, Log10 Concentration −4.0
  Percent Growth: −72%
MDA-MB-468; MDA-MB-468, Log10 Concentration −5.0
  Percent Growth: −10%
MDA-MB-468; MDA-MB-468, Log10 Concentration −6.0
  Percent Growth: 64%
MDA-MB-468; MDA-MB-468, Log10 Concentration −7.0
  Percent Growth: 94%
MDA-MB-468; MDA-MB-468, Log10 Concentration −8.0
  Percent Growth: 88%
NCI-H460; Homo sapiens, NCI-H460
  GI50: 21.3 µM
NCI-H460; Homo sapiens, NCI-H460, read-out: LC50
  CC50: > 100 µM
NCI-H460; Homo sapiens, NCI-H460, read-out: TGI
  IC (TGI): 53.9 µM
NCI-H460; NCI-H460, Log10 Concentration −4.0
  Percent Growth: −33%
NCI-H460; NCI-H460, Log10 Concentration −5.0
  Percent Growth: 91%
NCI-H460; NCI-H460, Log10 Concentration −6.0
  Percent Growth: 101%
NCI-H460; NCI-H460, Log10 Concentration −7.0
  Percent Growth: 102%
NCI-H460; NCI-H460, Log10 Concentration −8.0
  Percent Growth: 102%
UACC-257; Homo sapiens, UACC-257
  GI50: 8.82 µM
UACC-257; Homo sapiens, UACC-257, read-out: LC50
  CC50: 53.2 µM
UACC-257; UACC-257
  TGI: 2.26E−5
UACC-257; UACC-257, Log10 Concentration −4.0
  Percent Growth: −87%
UACC-257; UACC-257, Log10 Concentration −5.0
  Percent Growth: 47%
UACC-257; UACC-257, Log10 Concentration −6.0
  Percent Growth: 95%
UACC-257; UACC-257, Log10 Concentration −7.0
  Percent Growth: 90%
UACC-257; UACC-257, Log10 Concentration −8.0
  Percent Growth: 88%
NCI-H226; Homo sapiens, NCI-H226
  GI50: 12.7 µM
NCI-H226; Homo sapiens, NCI-H226, read-out: TGI
  IC (TGI): 32 µM
NCI-H226; NCI-H226, Log10 Concentration −4.0
  Percent Growth: −61%
NCI-H226; NCI-H226, Log10 Concentration −5.0
  Percent Growth: 63%
NCI-H226; NCI-H226, Log10 Concentration −6.0
  Percent Growth: 94%
NCI-H226; NCI-H226, Log10 Concentration −7.0
  Percent Growth: 97%
NCI-H226; NCI-H226, Log10 Concentration −8.0
  Percent Growth: 96%
OVCAR-3; Homo sapiens, OVCAR-3
  GI50: 4.54 µM
OVCAR-3; Homo sapiens, OVCAR-3, read-out: LC50
  CC50: 40.3 µM
OVCAR-3; Homo sapiens, OVCAR-3, read-out: TGI
  IC (TGI): 15.7 µM
OVCAR-3; OVCAR-3, Log10 Concentration −4.0
  Percent Growth: −98%
OVCAR-3; OVCAR-3, Log10 Concentration −5.0
  Percent Growth: 24%
OVCAR-3; OVCAR-3, Log10 Concentration −6.0
  Percent Growth: 100%
OVCAR-3; OVCAR-3, Log10 Concentration −7.0
  Percent Growth: 107%
OVCAR-3; OVCAR-3, Log10 Concentration −8.0
  Percent Growth: 96%
HOP-92; Log10 Concentration −4.0
  Percent Growth: −93%
HOP-92; Log10 Concentration −5.0
  Percent Growth: −2%
HOP-92; Log10 Concentration −6.0
  Percent Growth: 90%
HOP-92; Log10 Concentration −7.0
  Percent Growth: 93%
HOP-92; Log10 Concentration −8.0
  Percent Growth: 93%
HOP-92; Homo sapiens, HOP-92, HOP-92
  GI50: 2720 nM
HOP-92; Homo sapiens, HOP-92, read-out: LC50
  CC50: 33.7 µM
HOP-92; Homo sapiens, HOP-92, read-out: TGI
  IC (TGI): 9.47 µM
MOLT-4; Homo sapiens, MOLT-4
  GI50: 6.22 µM
MOLT-4; Homo sapiens, MOLT-4, read-out: LC50
  CC50: > 100 µM
MOLT-4; Homo sapiens, MOLT-4, read-out: TGI
  IC (TGI): 38.2 µM
MOLT-4; MOLT-4, Log10 Concentration −4.0
  Percent Growth: −25%
MOLT-4; MOLT-4, Log10 Concentration −5.0
  Percent Growth: 34%
MOLT-4; MOLT-4, Log10 Concentration −6.0
  Percent Growth: 110%
MOLT-4; MOLT-4, Log10 Concentration −7.0
  Percent Growth: 105%
MOLT-4; MOLT-4, Log10 Concentration −8.0
  Percent Growth: 97%
